Assay results taken from PubChem BioAssay AID1963451 (Molecular Pharmacology Branch, DTP, NCI, 2024).
Where “and” joins values, the source holds several entries; their conditions need not be identical. Identical values can stand only once.

System: 521955-158-R6-J3-PDC complex spheroid growth, % test/control
Assay: Anticancer human tumor 521955-158-R6-J3-PDC patient-derived pancreatic carcinoma cell line growth inhibition [Asc]
Conditions: for viability, T/C: stronger effect = lower value
Summary of the method: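 Stromal components (HUVEC and hMSC) are co-assembled with the cancer cells into multicellular spheroids. Drugs are then added singly or paired, at concentrations falling by half-log increments from a clinically achievable maximum, capped at 10 microM without known Cmax.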
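Also: spheroids exposed to compounds for 7 days.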
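For viability, T/C in this document: 100% = DMSO vehicle control wells.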

## CCN1CCN(Cc2ccc(Nc3ncc(F)c(-c4cc(F)c5nc(C)n(C(C)C)c5c4)n3)nc2)CC1 + Cc1c(S(C)(=O)=O)c(-c2cc(F)cc(N3CCN(c4ccc(NS(=O)(=O)c5ccc(NC(CCN6CCC(C(=O)OCCCP(=O)(O)O)CC6)CSc6ccccc6)c(S(=O)(=O)C(F)(F)F)c5)cc4)CC3)c2)c(-c2ccc(Cl)cc2)n1C(C)C
Curve of first compound, second compound 0.0316 µM
  IC50: > 1 µM
Curve of first compound, second compound 0.1 µM
  IC50: > 1 µM
Curve of first compound, second compound 0.316 µM
  IC50: < 0.00316 µM
Curve of first compound, second compound 1 µM
  IC50: < 0.00316 µM
Curve of first compound, second compound 3.16 µM
  IC50: < 0.00316 µM
Curve of first compound, second compound 10 µM
  IC50: < 0.00316 µM
Second compound 0.0316 µM, first compound 0.00316 µM
  viability, T/C: 96.2%
Second compound 0.0316 µM, first compound 0.01 µM
  viability, T/C: 81%
Second compound 0.0316 µM, first compound 0.0316 µM
  viability, T/C: 73.6%
Second compound 0.0316 µM, first compound 0.1 µM
  viability, T/C: 71.9%
Second compound 0.0316 µM, first compound 0.316 µM
  viability, T/C: 67.6%
Second compound 0.0316 µM, first compound 1 µM
  viability, T/C: 84.4%
Second compound 0.1 µM, first compound 0.00316 µM
  viability, T/C: 72.3%
Second compound 0.1 µM, first compound 0.01 µM
  viability, T/C: 57.5%
Second compound 0.1 µM, first compound 0.0316 µM
  viability, T/C: 62%
Second compound 0.1 µM, first compound 0.1 µM
  viability, T/C: 63.1%
Second compound 0.1 µM, first compound 0.316 µM
  viability, T/C: 82.1%
Second compound 0.1 µM, first compound 1 µM
  viability, T/C: 73.5%
Second compound 0.316 µM, first compound 0.00316 µM
  viability, T/C: 53%
Second compound 0.316 µM, first compound 0.01 µM
  viability, T/C: 49%
Second compound 0.316 µM, first compound 0.0316 µM
  viability, T/C: 43.9%
Second compound 0.316 µM, first compound 0.1 µM
  viability, T/C: 53.6%
Second compound 0.316 µM, first compound 0.316 µM
  viability, T/C: 49.4%
Second compound 0.316 µM, first compound 1 µM
  viability, T/C: 53.9%
Second compound 1 µM, first compound 0.00316 µM
  viability, T/C: 35.6%
Second compound 1 µM, first compound 0.01 µM
  viability, T/C: 39.1%
Second compound 1 µM, first compound 0.0316 µM
  viability, T/C: 29.4%
Second compound 1 µM, first compound 0.1 µM
  viability, T/C: 37.3%
Second compound 1 µM, first compound 0.316 µM
  viability, T/C: 34.2%
Second compound 1 µM, first compound 1 µM
  viability, T/C: 41.1%
Second compound 3.16 µM, first compound 0.00316 µM
  viability, T/C: 21.4%
Second compound 3.16 µM, first compound 0.01 µM
  viability, T/C: 18.7%
Second compound 3.16 µM, first compound 0.0316 µM
  viability, T/C: 18.4%
Second compound 3.16 µM, first compound 0.1 µM
  viability, T/C: 19.4%
Second compound 3.16 µM, first compound 0.316 µM
  viability, T/C: 24.2%
Second compound 3.16 µM, first compound 1 µM
  viability, T/C: 26.1%
Second compound 10 µM, first compound 0.00316 µM
  viability, T/C: 30.4%
Second compound 10 µM, first compound 0.01 µM
  viability, T/C: 16.3%
Second compound 10 µM, first compound 0.0316 µM
  viability, T/C: 15%
Second compound 10 µM, first compound 0.1 µM
  viability, T/C: 15.2%
Second compound 10 µM, first compound 0.316 µM
  viability, T/C: 26.6%
Second compound 10 µM, first compound 1 µM
  viability, T/C: 28.9%

## Cn1ncnc1[C@H]1c2n[nH]c(=O)c3cc(F)cc(c23)N[C@@H]1c1ccc(F)cc1 + CCN1C(C(=O)NC23CCC(C(=O)O)(CC2)CC3)C(c2cccc(Cl)c2F)C2(C(=O)Nc3cc(Cl)ccc32)C12CCCCC2
Curve of first compound, second compound 0.00949 µM
  IC50: > 0.1 µM
Curve of first compound, second compound 0.03 µM
  IC50: > 0.1 µM
Curve of first compound, second compound 0.0949 µM
  IC50: > 0.1 µM
Curve of first compound, second compound 0.3 µM
  IC50: > 0.1 µM
Curve of first compound, second compound 0.949 µM
  IC50: > 0.1 µM
Curve of first compound, second compound 3 µM
  IC50: > 0.1 µM
Second compound 0.00949 µM, first compound 0.000316 µM
  viability, T/C: 114%
Second compound 0.00949 µM, first compound 0.001 µM
  viability, T/C: 102%
Second compound 0.00949 µM, first compound 0.00316 µM
  viability, T/C: 98.8%
Second compound 0.00949 µM, first compound 0.01 µM
  viability, T/C: 91.7%
Second compound 0.00949 µM, first compound 0.0316 µM
  viability, T/C: 78.9%
Second compound 0.00949 µM, first compound 0.1 µM
  viability, T/C: 91.2%
Second compound 0.03 µM, first compound 0.000316 µM
  viability, T/C: 100%
Second compound 0.03 µM, first compound 0.001 µM
  viability, T/C: 94.1%
Second compound 0.03 µM, first compound 0.00316 µM
  viability, T/C: 100%
Second compound 0.03 µM, first compound 0.01 µM
  viability, T/C: 99.5%
Second compound 0.03 µM, first compound 0.0316 µM
  viability, T/C: 97.5%
Second compound 0.03 µM, first compound 0.1 µM
  viability, T/C: 94.6%
Second compound 0.0949 µM, first compound 0.000316 µM
  viability, T/C: 95.7%
Second compound 0.0949 µM, first compound 0.001 µM
  viability, T/C: 94.8%
Second compound 0.0949 µM, first compound 0.00316 µM
  viability, T/C: 101%
Second compound 0.0949 µM, first compound 0.01 µM
  viability, T/C: 102%
Second compound 0.0949 µM, first compound 0.0316 µM
  viability, T/C: 94.3%
Second compound 0.0949 µM, first compound 0.1 µM
  viability, T/C: 98.9%
Second compound 0.3 µM, first compound 0.000316 µM
  viability, T/C: 97.2%
Second compound 0.3 µM, first compound 0.001 µM
  viability, T/C: 97.7%
Second compound 0.3 µM, first compound 0.00316 µM
  viability, T/C: 99.4%
Second compound 0.3 µM, first compound 0.01 µM
  viability, T/C: 80.5%
Second compound 0.3 µM, first compound 0.0316 µM
  viability, T/C: 98.3%
Second compound 0.3 µM, first compound 0.1 µM
  viability, T/C: 102%
Second compound 0.949 µM, first compound 0.000316 µM
  viability, T/C: 104%
Second compound 0.949 µM, first compound 0.001 µM
  viability, T/C: 100%
Second compound 0.949 µM, first compound 0.00316 µM
  viability, T/C: 114%
Second compound 0.949 µM, first compound 0.01 µM
  viability, T/C: 87.5%
Second compound 0.949 µM, first compound 0.0316 µM
  viability, T/C: 96.3%
Second compound 0.949 µM, first compound 0.1 µM
  viability, T/C: 99.8%
Second compound 3 µM, first compound 0.000316 µM
  viability, T/C: 100%
Second compound 3 µM, first compound 0.001 µM
  viability, T/C: 90.4%
Second compound 3 µM, first compound 0.00316 µM
  viability, T/C: 108%
Second compound 3 µM, first compound 0.01 µM
  viability, T/C: 82%
Second compound 3 µM, first compound 0.0316 µM
  viability, T/C: 98.6%
Second compound 3 µM, first compound 0.1 µM
  viability, T/C: 99%

## NC1CCC(NC2CC2c2ccccc2)CC1 (stereo unspecified)
Compound 0.000316 µM
  viability, T/C: 104% and 94% and 98.2%
Compound 0.001 µM
  viability, T/C: 124% and 120% and 99.5%
Compound 0.00316 µM
  viability, T/C: 136% and 105% and 97.8%
Compound 0.01 µM
  viability, T/C: 128% and 117% and 109%
Compound 0.0316 µM
  viability, T/C: 128% and 103% and 93.2%
Compound 0.1 µM
  viability, T/C: 117% and 99.7% and 89.2%
Curve of compound
  IC50: > 0.1 µM
